# Reference: US12194015B2, “Composition comprising ferrous amino acid particles and method for treating or ameliorating pancreas-related disease using the same” (priority 2018, dated 2025)
# Several values for one entry are separate records, joined by “and”; a condition that tells them apart may be missing. Equal values may be shown once.
# Key:
# [1] = system: orthotopic xenograft pancreatic cancer (PANC-1); assay: Therapeutic effect (I) with gemcitabine: tumor growth (IVIS) and survival (Example 6); assay type: in vivo, NOD-SCID mice
# Description: The human pancreatic adenocarcinoma cell line PANC-1 obtained from preparation example 2 was cloned and labelled with luminescence and fluorescence vector. The luminescence and fluorescence-labelled cells were implanted into pancreas of experimental mice (50 NOD-SCID experimental mice purchased from BioLASCO Taiwan Co., Ltd) with a cell number of 5×10^5 by surgery. 10 days after the cell implantation to the pancreas of the animals, the baseline data was measured by noninvasive in vivo imaging system (IVIS). After the baseline IVIS data were obtained, all the experimental mice were randomly and evenly assigned into groups [the value of mean±3 s.d. of measured IVIS data was calculated, and the animals having an IVIS data within the standard range were assigned into control group (physiological saline was used), the group of the composition of the present invention obtained from preparation example (24 mg/kg the composition obtained for preparation example 1 was administrated directly into the stomachs of the mice through feeding tubes once per day), gemcitabine group (100 mg/kg gemcitabine was administered by intravenous injection twice per week), and combination group (24 mg/kg the composition of the present invention was administered daily and 100 mg/kg gemcitabine was administered twice per week), followed by the administration. The dosage and dosage regimen of the composition of the present invention were decided based on the results of example 4 that there were no significant differences between the high-dose group and the low-dose group, so the dosage of 24 mg/kg was chosen for this experiment. The dosage and the dosage regimen of first-line drug for the pancreatic cancer were decided in accordance with two journal articles: Cook, Natalie, et al. “Gamma secretase inhibition promotes hypoxic necrosis in mouse pancreatic ductal adenocarcinoma.” Journal of Experimental Medicine 209.3 (2012): 437-444. and Olive, Kenneth P., et al. “Inhibition of Hedgehog signaling enhances delivery of chemotherapy in a mouse model of pancreatic cancer.” Science (2009), so that the gemcitabine was administered at the dosage of 100 mg/kg twice per week for the experiment. The time points of IVIS data measurement were: Baseline 10 Day (Baseline 10D), the 17th day (the 7th day after administration), the 24th day (14 days after treatment), the 31st day (21 days after treatment), and the 38th day (28 days after treatment) of the experiment. […] The survival period of each mouse during the experiment was recorded.
# [2] = Jaundice observation and blood tests T-bilirubin, GOT/AST, GPT/ALT (Example 6); assay type: in vivo, NOD-SCID mice
# Description: The luminescence and fluorescence-labelled cells were implanted into pancreas of experimental mice (50 NOD-SCID experimental mice purchased from BioLASCO Taiwan Co., Ltd) with a cell number of 5×10^5 by surgery. 10 days after the cell implantation to the pancreas of the animals, the baseline data was measured by noninvasive in vivo imaging system (IVIS). After the baseline IVIS data were obtained, all the experimental mice were randomly and evenly assigned into groups [the value of mean±3 s.d. of measured IVIS data was calculated, and the animals having an IVIS data within the standard range were assigned into control group (physiological saline was used), the group of the composition of the present invention obtained from preparation example (24 mg/kg the composition obtained for preparation example 1 was administrated directly into the stomachs of the mice through feeding tubes once per day), gemcitabine group (100 mg/kg gemcitabine was administered by intravenous injection twice per week), and combination group (24 mg/kg the composition of the present invention was administered daily and 100 mg/kg gemcitabine was administered twice per week), followed by the administration. […] The blood tests for total bilirubin (T-bilirubin), glutamate oxaloacetate transaminase/aspartate aminotransferase (GOT/AST), and glutamate pyruvate transaminase/alanine transaminase (GPT/ALT) of all experimental animals on the 9th week were conducted and the mice were observed whether the jaundice occurred or not by the naked eyes. The jaundice signs of mice which could be observed by naked eyes included: emaciation, swollen gall, yellow dark skin, and abnormal yellow limbs and tail.
# [3] = system: orthotopic xenograft pancreatic cancer (PANC-1); assay: Therapeutic effect (II) with gemcitabine cycles: tumor growth (IVIS) and survival (Example 7); assay type: in vivo, NOD-SCID mice; conditions: for inhibition of the tumor growth of the orthotopic xenograft pancreatic cancer compared to control: composition 24 mg/kg daily, gemcitabine 100 mg/kg in gemcitabine cycles
# Description: The human pancreatic adenocarcinoma cell line PANC-1 obtained from preparation example 2 was cloned and labelled with luminescence and fluorescence vector. The luminescence and fluorescence-labelled cells were implanted into pancreas of experimental mice (40 NOD-SCID experimental mice purchased from BioLASCO Taiwan Co., Ltd) with a cell number of 5×10^5 by surgery. 10 days after the cell implantation to the pancreas of the animals, the baseline data was measured by noninvasive in vivo imaging system (IVIS). After the baseline IVIS data were obtained, all the experimental mice were randomly and evenly assigned into groups [the value of mean±3 s.d. of measured IVIS data was calculated, and the animals having an IVIS data within the standard range were assigned into control group (physiological saline was used), the group of the composition of the present invention (24 mg/kg the composition obtained for preparation example 1 was administrated daily), gemcitabine group (100 mg/kg gemcitabine was administered by intravenous injection twice per week continuously for three weeks and discontinuing gemcitabine on the fourth week. These four weeks were named as gemcitabine cycle. There were three gemcitabine cycles in the present example.), and the combination group (100 mg/kg gemcitabine was administered by intravenous injection twice per week continuously for three weeks, and discontinuing gemcitabine on the fourth week, and the 24 mg/kg composition of the present invention obtained from the preparation example 1 were administered daily). […] The time points of IVIS data measurement of this example were: Baseline 10 Day (Baseline 10D), the 17th day (7 days after treatment), the 24th day (14 days after treatment), the 31st day (21 days after treatment), the 38th day (28 days after treatment), the 45th day (35 days after treatment), and the 59th day (49 days after treatment) of experiment. The blood of the experimental mice was collected and the T-bilirubin, GOT, and GPT in blood were examined to monitor the reason causing the jaundice on the fixed time points [Baseline 10 Day (Baseline 10D), the 4th week after treatment, the 8th week after treatment, the 10th week after treatment, and the 12th week after treatment,]. Whether the jaundice occurred or not was also observed by naked eyes. The jaundice signs of mice which could be observed by naked eyes included: emaciation, swollen gall, yellow dark skin, and abnormal yellow limbs and tail. The survival period of each mouse during the experiment was recorded.
# [4] = Jaundice observation and blood tests T-bilirubin, GOT, GPT (Example 7); assay type: in vivo; design: dose or concentration left out as unconfirmed; conditions: 13th week after treatment
# Description: The luminescence and fluorescence-labelled cells were implanted into pancreas of experimental mice (40 NOD-SCID experimental mice purchased from BioLASCO Taiwan Co., Ltd) with a cell number of 5×10^5 by surgery. 10 days after the cell implantation to the pancreas of the animals, the baseline data was measured by noninvasive in vivo imaging system (IVIS). After the baseline IVIS data were obtained, all the experimental mice were randomly and evenly assigned into groups [the value of mean±3 s.d. of measured IVIS data was calculated, and the animals having an IVIS data within the standard range were assigned into control group (physiological saline was used), the group of the composition of the present invention (24 mg/kg the composition obtained for preparation example 1 was administrated daily), gemcitabine group (100 mg/kg gemcitabine was administered by intravenous injection twice per week continuously for three weeks and discontinuing gemcitabine on the fourth week. These four weeks were named as gemcitabine cycle. […] The survival period of each mouse during the experiment was recorded. […]
smiles,measurement,setting,value
Nc1ccn([C@@H]2O[C@H](CO)[C@@H](O)C2(F)F)c(=O)n1 [gemcitabine],effect of inhibiting the tumor growth of the pancreatic cancer compared to control,"[1]; 28 days after treatment, composition 24 mg/kg daily, gemcitabine 100 mg/kg i.v. twice per week",around 50%
same,day of the experiment on which the first dead mouse was found,"[1]; Example 6, control 60th day",77 days
same,day of the experiment on which the last dead mouse was found,"[1]; Example 6, control 91st day",100 days
same,average survival period of the whole group,"[1]; Example 6, control 80.1 days",89.4 days
same,jaundice,"[2]; 9th week after treatment, gemcitabine continuously twice per week",jaundice was found
same,T-bilirubin in the blood,"[2]; 9 weeks after treatment, versus groups not treated with gemcitabine, FIG. 13A",significantly higher
same,GOT in the blood,"[2]; 9 weeks after treatment, versus groups not treated with gemcitabine, FIG. 13B",significantly higher
same,GPT in the blood,"[2]; 9 weeks after treatment, versus groups not treated with gemcitabine, FIG. 13C",significantly higher
same,inhibition of the tumor growth of the orthotopic xenograft pancreatic cancer compared to control,[3]; 28th day after treatment,50%-60%
same,inhibition of the tumor growth of the orthotopic xenograft pancreatic cancer compared to control,[3]; 49th day after treatment,50%-60%
same,Average survival period,"[3]; Example 7, control group 89.4",114.7 days
same,Survival period of the experimental mice,"[3]; individual mice, 7 per group, Example 7",109 Days (2×) and 113 Days and 119 Days and 140 Days and 105 Days and 108 Days
same,number of mice with T-bilirubin higher than the standard,[4],one
